Assay results taken from patent US20240280490A1, “SYSTEMS AND METHODS FOR SIMULTANEOUS NEAR-INFRARED LIGHT AND VISIBLE LIGHT IMAGING” (priority 2020, published 2024).
Entries after “also recorded” stand apart in the source; their conditions may differ.

Experiments:
[1] = system: vascular lesion (abnormal vasculature) in brain tissue; conditions: ICG alone; general comparison statement; cited from earlier work
[2] = system: Grade 4 Atypical Teratoid Rhabdoid Tumor (ATRT) in the posterior fossa/brain stem; experiment: Intraoperative NIR fluorescence imaging during pediatric brain tumor resection; assay type: in vivo, human
Protocol: This example describes use of the imaging system and/or method disclosed herein for coaxial illumination and visualization of tozuleristide fluorescence during surgical resection of a pediatric brain tumor. The imaging system of the present invention was used to image brain tissue to detect a cancer using fluorescence imaging. Surgery was performed to remove cancer from the subject.
Subject T613 was diagnosed with a Grade 4 Atypical Teratoid Rhabdoid Tumor (ATRT) in the posterior fossa/brain stem. Tozuleristide which is a peptide-fluorophore detectable agent (15 mg/m2 dose), was given by intravenous (IV) bolus injection about 13.5 hours prior to the start of surgery. The imaging system was attached to the Zeiss Pentero surgical microscope prior the start of surgery, and the microscope head and arm and the imaging system and proximal imaging cable were enclosed in the microscope manufacturer's standard sterile drape. The drape's cover glass was secured over the bottom window aperture of the imaging system.
After the tumor was exposed, the imaging platform was initialized and used continuously. The imaging platform enabled the surgeon to view fluorescence and visible imaging separately and together on the imaging station display, simultaneously with viewing the surgical site in visible light through the operating microscope's eyepieces. […] Moreover, there was no need to reposition the operating microscope to view the imaging platform's fluorescence and visible images, thus allowing normal imaging of the surgical area through the microscope's eyepieces together with the fluorescence imaging system during the operation, which decreased disruption to the surgical workflow.
Video was captured for the duration of the tumor resection, and still images were captured of the exposed tumor. […] FIGS. 15A-15F show images taken from the tumor resection with the near-infrared (NIR) fluorescence images of the tumor using the imaging system (FIGS. 15B and 15E) and the overlay image with the NIR or IR fluorescence overlaid with the white light or visible light spectrum illumination (FIGS. 15C and 15F). […] In the overlay image, the normal brain tissue appeared red, as it does under normal visible light or white light as shown the visible light images of the tumor ([…]). The surgeon noted that only tumor tissue appeared fluorescent.

[3] = system: vascular lesion (abnormal vasculature) in brain tissue; experiment: Intraoperative NIR fluorescence imaging during resection of a cerebral vascular lesion (arteriovenous or cavernous malformation); assay type: in vivo, human; conditions: for Fluorescence in surrounding normal brain tissue and normal vasculature / Tozuleristide fluorescence in the abnormal vascular tissue / vascular lesion: pediatric subject, 22 mg IV approximately 5-6 hours before surgery and image collection, in situ
Protocol: This example describes use of the imaging system and/or methods disclosed herein for coaxial illumination and visualization of tozuleristide fluorescence during surgical resection of an arteriovenous malformation or cavernous malformation in a pediatric patient. The imaging system of the present invention was used to image brain tissue to detect abnormal vasculature using fluorescence imaging. Surgery was performed to remove the abnormality from the subject.
A pediatric subject with a history of anosmia was found on MRI to have a 3.5 cm T1-hypointense, T2/FLAIR-hyperintense mass in the right middle frontal gyrus with a central enhancing nodule, initially diagnosed pre-operatively to be a low-grade glioma. […] The patient received 22 mg tozuleristide via IV injection approximately 5-6 hours before surgery and image collection. The imaging system head was attached to the Zeiss Pentero surgical microscope along with two eyepieces prior the start of surgery.
After the lesion was exposed, the imaging system was initialized and used continuously. The imaging system enabled the surgeon to view fluorescence and visible imaging together and simultaneously with the operating microscope. A microsurgical resection was performed through a right frontal craniotomy. […] The abnormal tissue was completely resected. The patient recovered without deficit. Pathology confirmed the absence of tumor.
Video was captured for the duration of the resection, and still images were captured of the exposed lesion. […] FIGS. 29A-I show images taken from the vascular lesion with the near-infrared (NIR) fluorescence images of the vascular lesion using the imaging system. […] In the overlay image, the normal brain tissue and normal blood vessels appeared pink or light tan to red, as it does under normal visible light or white light. The surgeon noted that only the abnormal vascular tissue appeared fluorescent.
FIGS. 29A-I show representative images of in situ or intra-operative tissue during surgery on a vascular lesion in a patient, wherein 22 mg of tozuleristide was administered to the human subject. […] Labeled arrows indicate non-fluorescent regions of normal blood vessels (“BV”) and normal brain tissue (“NB”). In contrast, fluorescence signal corresponding to lighter and brighter areas in the NIR or IR image, was indicative of the presence of tozuleristide on the abnormal vascular lesion (“VL”), and not in normal tissue. […] The arrows mark the same locations as shown in the NIR or IR image in FIG. 29E. […] Fluorescence in the vascular lesion (“VL”) clearly differentiated it from the surrounding normal tissues, including normal blood vessels (“BV”). […] Arrows indicate the vascular lesion (labeled “VL”) and adjacent normal brain (labeled “NB”), which is non-fluorescent. […] While the normal brain has a light tan to pink color (light gray in a gray scale image), it is perfused with normal blood vessels that can be differentiated from the vascular lesion by the absence of fluorescence.

[4] = Subject T613, 15 mg/m2 IV bolus about 13.5 hours prior to start of surgery, in situ

| Molecule | Blood vessel fluorescence after injection [1] | Surgeon's assessment of the distinction between tumor and normal tissue fluorescence ([2]; NIR or IR fluorescence using the imaging system, compared with normal visible light) | Fluorescence in non-tumor brain tissue [2, 4] | Tozuleristide fluorescence in the exposed tumor (NIR or IR fluorescence image) [2, 4] | Histopathology of the fluorescent tissue samples ([2]; tumor resection, Subject T613) | Time after injection at which diseased tissue can be highlighted ([3]; general statement, fluorescence dependent on pathological tissue binding and uptake) | Fluorescence in surrounding normal brain tissue and normal vasculature [3] | Tozuleristide fluorescence in the abnormal vascular tissue / vascular lesion [3] | Fluorescence in surrounding normal brain tissue and normal vasculature ([3]; listed as Tozuleristide) | Tozuleristide fluorescence in the abnormal vascular tissue / vascular lesion ([3]; listed as Tozuleristide) | Histopathology of the fluorescent tissue samples ([3]; vascular lesion resection) |
| --- | --- | --- | --- | --- | --- | --- | --- | --- | --- | --- | --- |
| CC1(C)C(/C=C/C=C/C=C/C=C2\N(CCCCS(=O)(=O)O)c3ccc4ccccc4c3C2(C)C)=[N+](CCCCS(=O)(=O)[O-])c2ccc3ccccc3c21 [ICG, indocyanine green] | transiently lights up blood vessels immediately after injection | – | – | – | – | – | – | – | – | – | – |
| Tozuleristide | – | very good distinction between tumor and normal tissue fluorescence | did not show any fluorescence | observed in situ in the exposed tumor | confirmed to be viable tumor | up to 30 hours | showed no fluorescence | indicative of the presence of tozuleristide in the vascular lesion; also recorded: fluoresced avidly | no discernable background fluorescence | observed in situ in the exposed vascular lesion | confirmed to be non-cancerous and vascular in nature |
